Data set [1] has as its system SMN2 minigene mRNA (SMN2-A minigene construct). Description: SMN2 minigene mRNA splicing RT-qPCR assay in cultured cells. The format is cell-based, human. The following applies: Homo sapiens, HEK293-H; HEK293H cells stably transfected with SMN2-A minigene, 24 hours, 7-point concentration data; concentration giving 1.5-fold SMN2 full length mRNA relative to vehicle-treated cells; read-out: EC1.5x for production of full length SMN2 mRNA. The gist of the method:
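Full-length SMN2 minigene mRNA, measured by exon 7/luciferase-specific RT-qPCR that excludes endogenous SMN1/SMN2, was normalized to GAPDH and expressed relative to vehicle-treated cells via modified ΔΔCt. Stably transfected HEK293H cells received compound (7-point, 3.16-fold series, duplicates) for 24 h at 37 °C.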

A further data set relates to Smn protein. Put plainly: Smn protein assay (HTRF) in cultured cells (SMA patient fibroblasts GM03813). The format is cell-based, human. The conditions noted are these: 48 hours; for EC1.5x for Smn protein expression: SMA patient fibroblast cells (GM03813), HTRF, 7-point concentration data, concentration producing 1.5 times Smn protein vs DMSO vehicle control; for maximum fold (Fold) increase of Smn protein: SMA patient fibroblast cells, 7-point concentration curve, relative to vehicle control. In a few lines:
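Smn level is expressed as fold over vehicle, from blank-corrected ΔF of the 665/620 nm HTRF ratio. Readout used anti-SMN d2 and kryptate antibodies on RIPA lysates. GM03813 SMA fibroblasts had 48 h exposure at 37° C to seven 3.16-fold compound dilutions, run in triplicate.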

These results are taken from US9371336B2, “Compounds for treating spinal muscular atrophy” (PTC Therapeutics Inc., priority 2012, dated 2016).

Take `C[C@@H]1CN(C)[C@@H](C)CN1c1ccc2cc(-c3cn4cccc(Cl)c4n3)c(=O)oc2n1` [Cpd 98, 3-(8-chloroimidazo[1,2-a]pyridin-2-yl)-7-[(2R,5S)-2,4,5-trimethylpiperazin-1-yl]-2H-pyrano [2,3-b]pyridin-2-one]: the melting point fell in the range of 191 to 196 °C. Moreover, the EC (1.5-fold) in data set [1] was 0.1 to 0.3 µM. In the data set with Smn protein, the “EC1.5x for Smn protein expression” value is “** (an EC1.5× between >1 and ≦3 μM is indicated by two stars (**))”; the “maximum fold (Fold) increase of Smn protein” value (shortened to “maximum fold (Fold) increase”) is “**** (a fold increase between >1.5 and ≦1.65 is indicated by four stars (****))”.

For the compound `O=c1oc2nc(N3CCNCC3)ccc2cc1-c1cn2cccc(F)c2n1` [Cpd 108, 3-(8-fluoroimidazo[1,2-a]pyridin-2-yl)-7-(piperazin-1-yl)-2H-pyrano[2,3-b]pyridin-2-one], the melting point lay within 231 to 235 °C. Moreover, in data set [1], the EC (1.5-fold) was not above 0.1 µM. Moreover, in the data set with Smn protein, the “EC1.5x for Smn protein expression” value is reported as “**** (an EC1.5×≦0.3 μM is indicated by four stars (****))”; the “maximum fold (Fold) increase” value is “**** (a fold increase between >1.5 and ≦1.65 is indicated by four stars (****))”.

Compound `Cc1ccc2nc(-c3cc4ccc(N5CCCNCC5)nc4oc3=O)cn2c1` [Cpd 66, 7-(1,4-diazepan-1-yl)-3-(6-methylimidazo[1,2-a]pyridin-2-yl)-2H-pyrano[2,3-b]pyridin-2-one] yielded a melting point of 240 to 243 °C. The EC (1.5-fold) in data set [1] lay in the range of 0.1 to 0.3 µM. In addition, in the data set on Smn protein, the “EC1.5x for Smn protein expression” value is “** (an EC1.5× between >1 and ≦3 μM is indicated by two stars (**))”; the “maximum fold (Fold) increase” value is “*** (a fold increase between >1.35 and ≦1.5 is indicated by three stars (***))”.

In turn, `CCN1CCN(c2ccc3cc(-c4nc5c(Cl)cccc5s4)c(=O)oc3n2)CC1` [Cpd 12, 3-(4-chloro-1,3-benzothiazol-2-yl)-7-(4-ethylpiperazin-1-yl)-2H-pyrano[2,3-b]pyridin-2-one] returned a melting point of 266 to 269 °C. For the same compound, the EC (1.5-fold) in data set [1] is 0.3 to 1 µM. For the same compound, in the data set with Smn protein, the “maximum fold (Fold) increase” value was “*** (a fold increase between >1.35 and ≦1.5 is indicated by three stars (***))”.

As for `C[C@@H]1CN(c2ccc3cc(-c4nc5c(Cl)cccc5s4)c(=O)oc3n2)C[C@H](C)N1` [Cpd 70, 3-(4-chloro-1,3-benzothiazol-2-yl)-7-[(3R,5S)-3,5-dimethylpiperazin-1-yl]-2H-pyrano[2,3-b]pyridin-2-one], the melting point fell in the range of 295 to 297 °C. Further, the EC (1.5-fold) in data set [1] lay within 0.1 to 0.3 µM. The “maximum fold (Fold) increase” value in the data set on Smn protein is “*** (a fold increase between >1.35 and ≦1.5 is indicated by three stars (***))”.

Compound `Cc1ccn2cc(-c3cc4ccc(N5C[C@@H](C)N[C@@H](C)C5)nc4oc3=O)nc2c1` [Cpd 100, 7-[(3R,5S)-3,5-dimethylpiperazin-1-yl]-3-(7-methylimidazo[1,2-a]pyridin-2-yl)-2H-pyrano[2,3-b]pyridin-2-one] yielded a melting point of 246 to 249 °C. The EC (1.5-fold) in data set [1] is not above 0.1 µM. The “maximum fold (Fold) increase” value in the data set on Smn protein is “*** (a fold increase between >1.35 and ≦1.5 is indicated by three stars (***))”.

`Cc1ccn2cc(-c3cc4ccc(N5CCN(C)[C@@H](C)C5)nc4oc3=O)nc2c1` [Cpd 61, 7-[(3S)-3,4-dimethylpiperazin-1-yl]-3-(7-methylimidazo[1,2-a]pyridin-2-yl)-2H-pyrano[2,3-b]pyridin-2-one] registered a melting point of 246 to 250 °C. In addition, the EC (1.5-fold) in data set [1] was not above 0.1 µM. In the data set on Smn protein, the “EC1.5x for Smn protein expression” value is “**** (an EC1.5×≦0.3 μM is indicated by four stars (****))”; the “maximum fold (Fold) increase” value was “**** (a fold increase between >1.5 and ≦1.65 is indicated by four stars (****))”.

With `C[C@@H]1CN(c2ccc3cc(-c4cn5cccc(F)c5n4)c(=O)oc3n2)C[C@H](C)N1` [Cpd 76, 7-[(3R,5S)-3,5-dimethylpiperazin-1-yl]-3-(8-fluoroimidazo[1,2-a]pyridin-2-yl)-2H-pyrano[2,3-b]pyridin-2-one], the melting point was in the range of 247 to 249 °C. Also, the EC (1.5-fold) in data set [1] was not above 0.1 µM. In the data set on Smn protein, the “EC1.5x for Smn protein expression” value is “**** (an EC1.5×≦0.3 μM is indicated by four stars (****))” and the “maximum fold (Fold) increase” value is listed as “***** (a fold increase >1.65 is indicated by five stars (*****))”.

In the case of `Cl.O=c1oc2nc(N3CCNCC3)ccc2cc1-c1nc(C(F)(F)F)cs1` [Cpd 16, 7-(piperazin-1-yl)-3-[4-(trifluoromethyl)-1,3-thiazol-2-yl]-2H-pyrano[2,3-b]pyridin-2-one hydrochloride], the melting point was 274 to 280 °C. Moreover, the EC (1.5-fold) in data set [1] fell in the range of 1 to 3 µM. Further, the “maximum fold (Fold) increase” value with Smn protein was “* (A maximum fold increase ≦1.2 is indicated by one star (*))”.

As for `CN1CCN(c2ccc3cc(-c4cn5cccnc5n4)c(=O)oc3n2)CC1` [Cpd 117, 3-(imidazo[1,2-a]pyrimidin-2-yl)-7-(4-methylpiperazin-1-yl)-2H-pyrano[2,3-b]pyridin-2-one], the melting point is 266 to 269 °C. Also, in data set [1], the EC (1.5-fold) fell in the range of 0.1 to 0.3 µM. Further, in the data set on Smn protein, the “EC1.5x for Smn protein expression” value is “*** (an EC1.5× between >0.3 μM and ≦1 μM is indicated by three stars (***))”; the “maximum fold (Fold) increase” value was “**** (a fold increase between >1.5 and ≦1.65 is indicated by four stars (****))”.

Compound `C[C@@H]1CN[C@@H](C)CN1c1ccc2cc(-c3nc4c(Cl)cccc4s3)c(=O)oc2n1` [Cpd 85, 3-(4-chloro-1,3-benzothiazol-2-yl)-7-[(2R,5S)-2,5-dimethylpiperazin-1-yl]-2H-pyrano[2,3-b]pyridin-2-one] registered a melting point of 223 to 227 °C. In addition, the EC (1.5-fold) in data set [1] was in the range of 0.1 to 0.3 µM. In addition, the “maximum fold (Fold) increase” value in the data set on Smn protein is “** (a fold increase between >1.2 and ≦1.35 is indicated by two stars (**))”.

On to `Cc1cn2cc(-c3cc4ccc(N5CCCNCC5)nc4oc3=O)nc2c(C)n1.Cl` [Cpd 89, 7-(1,4-diazepan-1-yl)-3-(6,8-dimethylimidazo[1,2-a]pyrazin-2-yl)-2H-pyrano[2,3-b]pyridin-2-one hydrochloride], for which the melting point fell in the range of 273 to 276 °C. For the same compound, the EC (1.5-fold) in data set [1] was not above 0.1 µM. Moreover, in the data set with Smn protein, the “EC1.5x for Smn protein expression” value is “**** (an EC1.5×≦0.3 μM is indicated by four stars (****))”; the “maximum fold (Fold) increase” value was “**** (a fold increase between >1.5 and ≦1.65 is indicated by four stars (****))”.

Compound `CN1CCN(c2ccc3cc(-c4cn5cccc(F)c5n4)c(=O)oc3n2)CC1` [Cpd 110, 3-(8-fluoroimidazo[1,2-a]pyridin-2-yl)-7-(4-methylpiperazin-1-yl)-2H-pyrano[2,3-b]pyridin-2-one] came in with a melting point of 258 to 262 °C. The EC (1.5-fold) in data set [1] is not above 0.1 µM. In addition, in the data set on Smn protein, the “EC1.5x for Smn protein expression” value was “**** (an EC1.5×≦0.3 μM is indicated by four stars (****))”; the “maximum fold (Fold) increase” value was “**** (a fold increase between >1.5 and ≦1.65 is indicated by four stars (****))”.

With `Cl.O=c1oc2cc(N3CCNCC3)ncc2cc1-c1nc2c(Cl)cccc2s1` [Cpd 9, 3-(4-chloro-1,3-benzothiazol-2-yl)-7-(piperazin-1-yl)-2H-pyrano[3,2-c]pyridin-2-one hydrochloride], the melting point was 266 to 270 °C. Also, the EC (1.5-fold) in data set [1] lay in the range of 0.1 to 0.3 µM. Further, the “maximum fold (Fold) increase” value with Smn protein was “* (A maximum fold increase ≦1.2 is indicated by one star (*))”.

For `CCN1CCN(c2ccc3cc(-c4nc5ccccc5s4)c(=O)oc3n2)CC1` [Cpd 17, 3-(1,3-benzothiazol-2-yl)-7-(4-ethylpiperazin-1-yl)-2H-pyrano[2,3-b]pyridin-2-one], the melting point lay within 254 to 257 °C. Besides, the EC (1.5-fold) in data set [1] fell in the range of 0.3 to 1 µM. In the data set with Smn protein, the “maximum fold (Fold) increase” value is “*** (a fold increase between >1.35 and ≦1.5 is indicated by three stars (***))”.

As for `O=c1oc2nc(N3CCN(Cc4ccccc4O)CC3)ccc2cc1-c1nc2c(Cl)cccc2s1` [Cpd 6, 3-(4-chloro-1,3-benzothiazol-2-yl)-7-[4-(2-hydroxybenzyl)piperazin-1-yl]-2H-pyrano[2,3-b]pyridin-2-one], the melting point fell in the range of 262 to 266 °C. Also, the EC (1.5-fold) in data set [1] is 3 to 30 µM. In the data set with Smn protein, the “maximum fold (Fold) increase” value is “** (a fold increase between >1.2 and ≦1.35 is indicated by two stars (**))”.

Regarding `Cc1cn2cc(-c3cc4ccc(N5CCCN(C)CC5)nc4oc3=O)nc2c(C)n1` [Cpd 91, 3-(6,8-dimethylimidazo[1,2-a]pyrazin-2-yl)-7-(4-methyl-1,4-diazepan-1-yl)-2H-pyrano[2,3-b]pyridin-2-one], the melting point lay within 243 to 245 °C. The EC (1.5-fold) in data set [1] is not above 0.1 µM. Further, in the data set on Smn protein, the “EC1.5x for Smn protein expression” value is “**** (an EC1.5×≦0.3 μM is indicated by four stars (****))” and the “maximum fold (Fold) increase” value is “***** (a fold increase >1.65 is indicated by five stars (*****))”.

`Cc1cn2cc(-c3cc4cnc(N5CCN(C)CC5)cc4oc3=O)nc2s1` [Cpd 55, 3-(2-methylimidazo[2,1-b][1,3]thiazol-6-yl)-7-(4-methylpiperazin-1-yl)-2H-pyrano[3,2-c]pyridin-2-one] gave a melting point of 282 to 286 °C. The EC (1.5-fold) in data set [1] was 1 to 3 µM. Besides, in the data set with Smn protein, the “EC1.5x for Smn protein expression” value was “** (an EC1.5× between >1 and ≦3 μM is indicated by two stars (**))”; the “maximum fold (Fold) increase” value is “*** (a fold increase between >1.35 and ≦1.5 is indicated by three stars (***))”.
